Test results: PubChem BioAssay AID2124 (Sanford-Burnham Center for Chemical Genomics, 2009)
Results filed as inconclusive are left out. Activity calls are given as the source filed them. No rule for the calls is given here; tested in MIN6 cells.

Assays:
[1] = cell-permeable autofluorescent compounds in GFP channel, dose response, artefact control, imaging, high-content imaging (AID 2124); settings: cells, GFP-channel autofluorescence, high-content imaging; cell count; at 10 µM;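 as to cell count: cells exposed to compound for 48 hours before fixing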
[2] = tested on: cells, GFP-channel autofluorescence, high-content imaging; assay: as above

CCCN1C(=O)/C(=C\C=C2\N(CC)c3ccccc3C2(C)C)SC1=S
cell count [1]: 2900 cells | EC50 [2]: 7.93 µM

COc1cc([C@@H]2[C@H]3CN(C)CC=C3C(C#N)=C(N)C2(C#N)C#N)cc2c1OCO2
cell count [1]: 3070 cells | EC50 [2]: 9.32 µM

CN(C)c1ccc(/C=C/C(O)=C2/C(=O)N(C)C3(C)CC2c2ccccc2O3)cc1 (stereo not given)
cell count [1]: 2640 cells | EC50 [2]: 7.25 µM

CCOC(=O)CN1C(=O)S/C(=C/c2ccc(N3CCCCC3)o2)C1=O
cell count [1]: 3180 cells | EC50 [2]: 7.22 µM

Cc1csc(NC(=O)c2sc3nc(-c4cccs4)ccc3c2N)n1
cell count [1]: 2840 cells | EC50 [2]: 15.7 µM (inactive)

CCN1CC=C2C(C#N)=C(N)C(C#N)(C#N)C(CCc3ccccc3)C2C1 (stereo not given)
cell count [1]: 3160 cells | EC50 [2]: 9.3 µM

CN1CC=C2C(C#N)=C(N)C(C#N)(C#N)[C@H](c3cccc(Cl)c3)C2C1 (stereo not given in full)
cell count [1]: 2960 cells | EC50 [2]: 9.06 µM

C=CCN1C(=O)c2cccc3c(N4CCCCC4)ccc(c23)C1=O
cell count [1]: 3300 cells | EC50 [2]: 6.64 µM

COCCN1C(=O)/C(=C/c2ccc(N3CCCC3)cc2)SC1=S
cell count [1]: 3330 cells | EC50 [2]: 9.79 µM

Nc1ccc2c(c1)Cc1cc([N+](=O)[O-])ccc1-2
cell count [1]: 2910 cells | EC50 [2]: 4.22 µM

CCN(CC)c1ccc(/C=C/C(=O)c2ccc(Br)cc2)cc1
cell count [1]: 2880 cells | EC50 [2]: 3.67 µM

COc1ccc(C(=O)/C=C/c2ccc(N(C)C)cc2)c(OC)c1
cell count [1]: 2380 cells | EC50 [2]: 9.89 µM

Cc1oc(C)c2c(=O)ccc3c(c12)OC(N)=C(C#N)C3c1ccccc1Cl (stereo not given)
cell count [1]: 3240 cells | EC50 [2]: 14.8 µM (inactive)

Cc1cc(/C=C2/C(=O)N(C)C(=S)N2C)ccc1N1CCCC1
cell count [1]: 2680 cells | EC50 [2]: 3.02 µM

N#C/C(=C\c1ccc(N2CCCCC2)o1)C(N)=O
cell count [1]: 3260 cells | EC50 [2]: 12.2 µM (inactive)

CCCCn1nc(-c2ccccc2)c2nc3ccccc3nc21
cell count [1]: 3250 cells | EC50 [2]: 13.8 µM (inactive)

Cc1ccc(-c2cn3nc(-c4ccccc4)c(-c4ccccc4)nc3n2)cc1
cell count [1]: 3200 cells | EC50 [2]: 6.02 µM

COc1ccc2nc(SCC(C)=O)c(C#N)cc2c1
cell count [1]: 2490 cells | EC50 [2]: 7.2 µM

N#Cc1c(NC(=S)NC(=O)c2ccccc2)sc2c1CCN(CCc1ccccc1)C2
cell count [1]: 2330 cells | EC50 [2]: 5.79 µM

CCN(CC)c1ccc2cc(C(N)=O)/c(=N\NC(=O)c3ccncc3)oc2c1
cell count [1]: 3100 cells | EC50 [2]: 9.35 µM

O=C(OCCN1C(=O)c2cccc3c(N4CCOCC4)ccc(c23)C1=O)c1ccc(Cl)cc1Cl
cell count [1]: 1690 cells | EC50 [2]: 6.84 µM

CCCCN1C(=O)/C(=C/C=C2\SCCN2C)SC1=S
cell count [1]: 2930 cells | EC50 [2]: 6.67 µM

Cc1oc(C)c2c(=O)ccc3c(c12)OC(N)=C(C#N)C3c1ccc(F)cc1 (stereo not given)
cell count [1]: 2880 cells | EC50 [2]: > 16 µM (inactive)

CCCN1C(=O)/C(=C/c2c(NCCCOC(C)C)nc3c(C)cccn3c2=O)SC1=S
cell count [1]: 2790 cells | EC50 [2]: > 16 µM (inactive)

COc1cc2c3nnc(-c4ccc(F)cc4)c-3cn(Cc3ccccc3)c2cc1OC
cell count [1]: 338 cells | EC50 [2]: 2.58 µM

COc1ccc(C(=O)c2sc3nc(-c4ccccc4)ccc3c2N)cc1OC
cell count [1]: 2560 cells | EC50 [2]: 1.87 µM

Cc1cccn2c(=O)c(/C=C3\SC(=S)NC3=O)c(NCCCN3CCOCC3)nc12
cell count [1]: 2700 cells | EC50 [2]: 9.39 µM

COc1ccccc1N/C=C/c1onc(C)c1[N+](=O)[O-]
cell count [1]: 3140 cells | EC50 [2]: 7.9 µM

Cc1cc2nc3c(=O)n(C4CCCCC4)c(=O)[nH]c3nc2cc1N
cell count [1]: 3150 cells | EC50 [2]: 11.8 µM (inactive)

COc1ccc2c(C)cc(SCC(=O)N(C)C3CCS(=O)(=O)C3)nc2c1 (stereo not given)
cell count [1]: 3270 cells | EC50 [2]: 9.63 µM

CCN(CC)c1ccc2cc(C(=O)Nc3ccccn3)c(=O)oc2c1
cell count [1]: 3080 cells | EC50 [2]: 5.37 µM

N#C/C(=C\c1ccc(N2CCOCC2)o1)c1ccccc1
cell count [1]: 2130 cells | EC50 [2]: > 16 µM (inactive)

CC(C)N1CC=C2C(C#N)=C(N)C(C#N)(C#N)[C@H](c3ccoc3)[C@H]2C1
cell count [1]: 2840 cells | EC50 [2]: 6.74 µM

CCCN1CCc2c(sc(NC(=S)NC(=O)c3ccccc3)c2C#N)C1
cell count [1]: 3200 cells | EC50 [2]: 13.3 µM (inactive)

Cc1nn(C)cc1N1C(=O)c2cccc3c(N)ccc(c23)C1=O
cell count [1]: 2940 cells | EC50 [2]: > 16 µM (inactive)

CN1CC=C2C(C#N)=C(N)C(C#N)(C#N)C(c3ccsc3)C2C1 (stereo not given)
cell count [1]: 2400 cells | EC50 [2]: > 16 µM (inactive)

COc1ccc(CN=Cc2[nH]c3ccc(Br)c(Cl)c3c2O)cc1
cell count [1]: 3150 cells | EC50 [2]: > 16 µM (inactive)

O=C(/C=C/c1ccc(N2CCC(c3ccccc3)=N2)cc1)c1ccccc1
cell count [1]: 2900 cells | EC50 [2]: 5.99 µM

CCN(CC)c1ccc2cc(-c3nc(-c4ccc(OC)cc4)cs3)c(=O)oc2c1
cell count [1]: 2750 cells | EC50 [2]: > 16 µM (inactive)

Cc1ccnc(N/C=C(\C#N)c2nc(-c3cccc(Br)c3)cs2)c1
cell count [1]: 2880 cells | EC50 [2]: 8.87 µM
